According to patent publication US3974188A, “Process for producing cholestane type steroids” (The Lion Dentifrice Co., Ltd., priority 1974, dated 1976):

Experiments:
vascular diffusion = test: Test for inhibition of the acceleration of vascular diffusion (inhibition of cutaneous chromoleaching of rat); format: in vivo; details: for Inhibition rate (%) / Mean blueing area (mm^2 ± S.E.): rat; for Mean blueing area (mm^2 ± S.E.): none: 200 ± 8.0
Text: 3. Test for inhibition of the acceleration of vascular diffusion
(Test for inhibition of cutaneous chromoleaching of rat)**
**Juduh, J. D. and Willoughby, D.A.; J. Path. Buct., 83, 567 (1962)

sarcomatous growth = test: Test for inhibition of sarcomatous growth (Rat cotton pellet method); format: in vivo; details: dose 100 mg/kg, 7 rats
Text: 1. Test for inhibition of sarcomatous growth
(Rat cotton pellet method)*
*Meier, R., Schuler, W. and Desaulees, P. : Experienta, 6, (1950)

mouse = test: Acute toxicity, LD50; format: in vivo; details: mouse male, 5 weeks; intraperitoneal
Text: (§1) |LD50 (mouse male, 5 weeks)

Acute toxicity, LD50 = format: in vivo; details: mouse, in vivo, mouse male, 5 weeks
Text: as §1

[1] = Antiinflammatory effect (overall statement); details: in vivo

CC(C)CCC[C@@H](C)[C@H]1CC[C@H]2[C@@H]3CC[C@H]4C[C@@H](O)CC[C@]4(C)[C@H]3CC[C@]12C [C, cholestanol]
Inhibition rate (%) (vascular diffusion; 50 mg/kg P.C.): 4.5% | Mean blueing area (mm^2 ± S.E.) (vascular diffusion; 50 mg/kg P.C.): 191 ± 5 mm^2 | Inhibition rate (%) (vascular diffusion; 100 mg/kg P.C.): 6% | Mean blueing area (mm^2 ± S.E.) (vascular diffusion; 100 mg/kg P.C.): 188 ± 3 mm^2 | Inhibition rate (%) (sarcomatous growth): 4.5%

CC(C)CCC[C@@H](C)[C@H]1CC[C@H]2[C@@H]3CC[C@H]4C[C@H](O)CC[C@]4(C)[C@H]3CC[C@]12C [EC, epicholestanol]
Inhibition rate (%) (vascular diffusion; 50 mg/kg P.C.): 4.5% | Mean blueing area (mm^2 ± S.E.) (vascular diffusion; 50 mg/kg P.C.): 191 ± 9 mm^2 | Inhibition rate (%) (vascular diffusion; 100 mg/kg P.C.): 10% | Mean blueing area (mm^2 ± S.E.) (vascular diffusion; 100 mg/kg P.C.): 180 ± 4 mm^2 | Inhibition rate (%) (sarcomatous growth): 6.9%

CC(C)CCC[C@@H](C)[C@H]1CC[C@H]2[C@@H]3CC[C@H]4C[C@H](OP(=O)(O)O)CC[C@]4(C)[C@H]3CC[C@]12C [epicholestanyl phosphate]
acceleration of vascular diffusion (in words) (vascular diffusion; 100 mg/kg): inhibited | LD50 (mouse): 1850 mg/kg

CC(C)CCC[C@@H](C)[C@H]1CC[C@H]2[C@@H]3CC[C@H]4C[C@H](OP(=O)(O)O)CC[C@]4(C)[C@H]3CC[C@]12C [dipotassium epicholestanyl phosphate]
Inhibition rate (%) (vascular diffusion; 50 mg/kg P.C.): 18% | Mean blueing area (mm^2 ± S.E.) (vascular diffusion; 50 mg/kg P.C.): 164 ± 4 mm^2 | Inhibition rate (%) (vascular diffusion; 100 mg/kg P.C.): 21% | Mean blueing area (mm^2 ± S.E.) (vascular diffusion; 100 mg/kg P.C.): 158 ± 6 mm^2 | LD50 (Acute toxicity, LD50; ip, intraperitoneal): 1580 mg/kg | LD50 (Acute toxicity, LD50; po): 9300 mg/kg | antiinflammatory effect (in words) [1]: remarkably effective as an antiinflammatory agent | Inhibition rate (%) (sarcomatous growth): 21.5%

CC(C)CCC[C@@H](C)[C@H]1CC[C@H]2[C@@H]3CC[C@H]4C[C@@H](OP(=O)(O)O)CC[C@]4(C)[C@H]3CC[C@]12C [K2 --PEC, dipotassium cholestanyl phosphate]
Inhibition rate (%) (sarcomatous growth): 10.0%
